The test system of assay [1] is human blood platelets. Nature of the assay: Platelet aggregation (aggregometric assay with washed platelets). The conditions noted are these: for platelet aggregation by compound alone: 25 or 50 μg/ml ellagic acid, hydrate. Format: cell-based. The procedure: The influence of amyloid-β(1-40) E22Q Dutch type (Aβ) peptide aggregates with cross-β structure conformation on blood platelet aggregation was tested with washed platelets in an aggregometric assay. Freshly drawn human aspirin free blood was mixed gently with citrate buffer to avoid coagulation. Blood was spinned for 15′ at 150*g at 20° C. and supernatant was collected; platelet rich plasma (PRP). […] After spinning down the platelets upon centrifugation for 15′ at 330*g at 20° C., the pellet was resuspended in HEPES-Tyrode buffer pH 6.5. Prostacyclin was added to a final concentration of 10 ng/ml, and the solution was centrifuged for 15′ at 330*g at 20° C., with a soft brake. The pellet was resuspended in HEPES-Tyrode buffer pH 7.2 in a way that the final platelet number was adjusted to 200,000/μl. Platelets were kept at 37° C. for at least 30′, before use in the assays, to ensure that they were in the resting state.
Aggregation of platelets was monitored in an aggregometer (Chrono-Log Corporation, Havertown, Pa., USA) for 15 minutes at 37° C. with a magnet stirring speed of 900 rpm. First, 270 μl of platelet solution was pipetted in the cuvettes and after 1 minute of stirring, 30 μl of preincubated (5 minutes, RT) Aβ and Hematein solution or control was added. The hematein stock was 10 mg/ml in HEPES-Tyrode buffer. The Aβ stock was 1 mg/ml. For blank readings unstirred HEPES Tyrode buffer was used. The aggregation is expressed as the percentage of the light transmission (0-100%). As a positive control, synthetic thrombin receptor activating peptide (TRAP) induced platelet aggregation was used. A control experiment was performed to study the influence of the red colour of hematein on the light transmission. For this, 4 μM TRAP was added at time 1 minute to the platelets, then hematein was added after 6 minutes of aggregation. The platelets were used for not more than 4 hours after isolation to reduce variations in sensitivity amongst subsequent measurements.
Ellagic acid was first dissolved to 100 mg/ml in DMSO, and then further diluted to 1 mg/ml in HBS buffer. Final concentrations of Aβ and ellagic acid in the aggregation assay were 50 μg/ml and 25/50 μg/ml, respectively. In addition, the influence of ellagic acid alone on platelet aggregation was tested. As a control, the influence of 0.08% DMSO on 50 μg/ml Aβ-induced platelet aggregation was analyzed. The 100% DMSO of the ellagic acid stock was diluted 2000 and 4000×, resulting in […] final DMSO concentrations in the aggregation assay.

Assay [2] has as its target T1, tPA/plasminogen (Homo sapiens, UniProt P00750).
T1 construct: purchased Boehringer Ingelheim Actilyse
Nature of the assay: tPA/plasminogen activation by OVA heated in the presence of compounds (substrate PNAPEP1751). Format: biochemical. The conditions noted are these: 25 μg/ml OVA, 25 μg/ml compound, […] DMSO. The method in brief: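 Ovalbumin heated alone in PBS/1% DMSO (positive control) or with compounds at 1 mg/ml, then used 40-fold diluted in a tPA/plasminogen activation assay; buffer without OVA as negative control. Chromogenic substrate conversion read at 405 nm, with compound interference at 405 nm checked; signals related to control.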

For assay [3], the target named is T2, factor XII (Homo sapiens, UniProt P00748).
T2 sequence (P00748 20-615): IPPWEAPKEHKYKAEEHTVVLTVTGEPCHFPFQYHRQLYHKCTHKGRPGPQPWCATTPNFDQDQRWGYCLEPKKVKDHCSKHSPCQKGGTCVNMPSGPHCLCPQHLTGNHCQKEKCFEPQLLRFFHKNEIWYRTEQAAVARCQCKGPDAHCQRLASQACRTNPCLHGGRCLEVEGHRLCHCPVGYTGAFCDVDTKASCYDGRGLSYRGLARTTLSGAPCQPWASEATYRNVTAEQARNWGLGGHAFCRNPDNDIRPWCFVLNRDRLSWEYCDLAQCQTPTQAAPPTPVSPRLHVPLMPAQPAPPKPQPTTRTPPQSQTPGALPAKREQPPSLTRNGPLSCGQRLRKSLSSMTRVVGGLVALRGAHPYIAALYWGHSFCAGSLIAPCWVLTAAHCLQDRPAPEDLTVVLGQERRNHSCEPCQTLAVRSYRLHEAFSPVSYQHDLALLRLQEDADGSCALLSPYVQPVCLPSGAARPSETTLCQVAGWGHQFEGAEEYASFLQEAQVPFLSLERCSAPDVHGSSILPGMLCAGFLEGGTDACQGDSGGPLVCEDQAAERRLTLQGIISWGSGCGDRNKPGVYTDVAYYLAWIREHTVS
Nature of the assay: Factor XII activation assay (chromogenic, prekallikrein, Chromozyme-PK). The note with it: for activation of factor XII by compound alone: without protein cofactor, ellagic acid 50 μg/ml. It counts as biochemical. Details: purchased Calbiochem. The procedure: For this purpose, in a reaction volume of 60 μl the following components were mixed: 10 μl of 300 μg/ml ellagic acid solution or control buffer, 10 μl of 750 μg/ml I or control buffer, 20 μl of a solution comprising [HEPES-buffered saline, 1.96 μg/ml prekallikrein (Calbiochem), 10 mM ZnCl2, 2.13 μg/ml high molecular weight kininogen (Calbiochem); ‘PK mix’ ], 10 μl Chromozyme-PK (Roche, 1 mg/ml aliquot) and 10 μl of a solution comprising 1 mM ZnCl2, HEPES-buffered saline and 4.76 μg/ml factor XII (Calbiochem); ‘FXII mix’. Nunc Immobilizer plates were blocked with PBS with 1% Tween20 for 1 hour at room temperature under constant motion. All reagents were kept on ice throughout preparation of the experiment. The factor XII activating capacity of ellagic acid (Sigma, E-2250, St. Louis, Mo., USA) or I (Cealb, Sanquin, Amsterdam, The Netherlands) alone, and combination thereof was determined in duplicate. After adding 10 μL of I solution or buffer and 10 μl of ellagic acid solution or buffer to the wells, 20 μL of PK mix was added to each well. Ten μL of kallikrein substrate Chromozyme PK was added to each well, followed by 10 μL of freshly prepared FXII mix. Final I and ellagic acid concentrations are 125 μg/ml and 50 μg/ml. Absorbance was measured at 405 nm at 37° C. for 3 hours with brief shaking every minute.

The values that follow come from patent US20080267948A1, “Croos-B Structure Binding Compounds” (priority 2005, published 2008).

“Also recorded” adds a separate entry of the source.

T1 sequence (P00750 36-562): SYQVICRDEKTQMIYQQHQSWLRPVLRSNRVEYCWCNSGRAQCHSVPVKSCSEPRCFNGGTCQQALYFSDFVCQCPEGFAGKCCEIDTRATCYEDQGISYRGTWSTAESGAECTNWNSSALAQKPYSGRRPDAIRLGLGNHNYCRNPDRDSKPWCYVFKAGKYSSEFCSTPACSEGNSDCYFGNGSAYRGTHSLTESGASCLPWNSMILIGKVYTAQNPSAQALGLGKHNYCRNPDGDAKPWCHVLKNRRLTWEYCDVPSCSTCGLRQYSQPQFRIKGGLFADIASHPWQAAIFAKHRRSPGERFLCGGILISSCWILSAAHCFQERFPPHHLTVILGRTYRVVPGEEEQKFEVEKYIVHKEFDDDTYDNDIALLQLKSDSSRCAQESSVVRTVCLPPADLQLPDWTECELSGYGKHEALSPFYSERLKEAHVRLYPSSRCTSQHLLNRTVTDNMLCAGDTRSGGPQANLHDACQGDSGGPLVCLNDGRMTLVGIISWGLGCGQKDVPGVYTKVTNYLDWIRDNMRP

On to `O=c1oc2c(O)c(O)cc3c(=O)oc4c(O)c(O)cc1c4c23` [compound 117, Ellagic acid hydrate], for which the “influence on Aβ induced platelet aggregation” value in assay [1] (25 and 50 μg/ml ellagic acid hydrate, 100 μg/ml Aβ) is “further enhances amyloid-β triggered aggregation”. For the same compound, the “platelet aggregation by compound alone” value is “potent activator of platelets resulting in their aggregation; also recorded: Stimulation of platelet aggregation” in assay [1] (listed as ellagic acid hydrate) and “strong inducer of aggregation” in assay [1] (listed as ellagic acid). For the same compound, the “influence on tPA/plasminogen activation by OVA pre-heated in the presence of compound” value in assay [2] is “Inhibition of tPA/plasminogen activation by OVA pre-heated”. For the same compound, in assay [3] (50 μg/ml ellagic acid with 125 μg/ml HSA, hydrate), the “activation of factor XII/kallikrein generation, compound combined with human serum albumin” value is reported as “potent activator of kallikrein generation; also recorded: kallikrein substrate Chromozyme-PK conversion is only observed when in addition 125 μg/ml HSA is included in the assay”. The “Activation of factor XII (summary)” value in assay [3] (summary Table 9) is reported as “Activation of factor XII”. Moreover, the “activation of factor XII by compound alone” value in assay [3] (listed as Ellagic acid, hydrate) is given as “factor XII/kallikrein activity comparable to control buffer”; in assay [3] (listed as ellagic acid, hydrate) it was “poor activators of factor XII”.
